The target in assay [1] is T1, FOF1-ATPase (FOF1-ATP synthase) (Cupriavidus necator, UniProt Q0K5M2).
T1 construct: gene atpE; native complex in membrane vesicles (osmotic lysis), not purified; FOF1 share defined by DCCD sensitivity; with ATP synthase subunit a; ATP synthase subunit b; ATP synthase subunit alpha; ATP synthase subunit beta; ATP synthase gamma chain; ATP synthase subunit delta; ATP synthase epsilon chain
In words: phosphate release from ATP by membrane vesicles. It counts as biochemical. The settings on record: 5 mM ATP, 1 mM MgSO4, 50 mM Tris-HCl pH 7.0, 30 °C; 10 min preincubation; FN-grown cells; overall ATPase activity of vesicles.

For assay [2], the target named is T2, SH (cytoplasmic, soluble hydrogenase) (Cupriavidus necator, UniProt P22317).
T2 construct: gene hoxF; native enzyme in soluble protein fraction of cell extract; hetero-hexamer HoxHYFUI2; with NAD-reducing hydrogenase HoxS subunit beta; NAD-reducing hydrogenase HoxS subunit gamma; NAD-reducing hydrogenase HoxS subunit delta; NAD-reducing hydrogenase subunit HoxI
T2 sequence (P22317 whole entry): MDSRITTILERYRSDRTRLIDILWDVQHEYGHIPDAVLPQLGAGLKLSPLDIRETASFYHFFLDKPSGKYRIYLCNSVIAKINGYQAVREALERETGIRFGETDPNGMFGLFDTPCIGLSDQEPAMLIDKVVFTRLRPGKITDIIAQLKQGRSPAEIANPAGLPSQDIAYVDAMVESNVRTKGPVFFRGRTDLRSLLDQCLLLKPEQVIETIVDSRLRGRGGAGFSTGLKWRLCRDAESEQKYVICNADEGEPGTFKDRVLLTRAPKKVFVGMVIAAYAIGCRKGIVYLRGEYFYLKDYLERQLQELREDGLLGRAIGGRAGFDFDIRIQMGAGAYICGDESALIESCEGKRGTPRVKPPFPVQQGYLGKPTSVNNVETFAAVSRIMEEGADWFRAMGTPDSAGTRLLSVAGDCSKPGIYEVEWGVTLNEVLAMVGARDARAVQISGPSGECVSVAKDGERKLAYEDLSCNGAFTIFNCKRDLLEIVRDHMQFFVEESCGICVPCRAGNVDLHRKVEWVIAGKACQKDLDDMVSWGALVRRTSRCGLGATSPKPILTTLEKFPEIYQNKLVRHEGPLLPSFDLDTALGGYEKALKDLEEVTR
T2 sequence (P22318 2-234 partner): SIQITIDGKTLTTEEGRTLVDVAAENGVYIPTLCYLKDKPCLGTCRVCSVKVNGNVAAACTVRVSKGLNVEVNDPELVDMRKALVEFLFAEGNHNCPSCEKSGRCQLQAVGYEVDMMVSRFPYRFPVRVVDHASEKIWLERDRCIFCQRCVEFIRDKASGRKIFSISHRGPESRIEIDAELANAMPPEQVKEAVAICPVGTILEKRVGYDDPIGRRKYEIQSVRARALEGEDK
T2 sequence (P22319 whole entry partner): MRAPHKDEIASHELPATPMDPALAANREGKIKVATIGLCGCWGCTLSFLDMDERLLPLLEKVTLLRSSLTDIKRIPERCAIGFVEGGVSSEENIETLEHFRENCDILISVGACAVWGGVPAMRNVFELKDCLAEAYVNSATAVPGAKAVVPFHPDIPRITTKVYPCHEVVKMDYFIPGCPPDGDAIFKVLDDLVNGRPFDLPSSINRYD
T2 sequence (P22320 2-464 partner): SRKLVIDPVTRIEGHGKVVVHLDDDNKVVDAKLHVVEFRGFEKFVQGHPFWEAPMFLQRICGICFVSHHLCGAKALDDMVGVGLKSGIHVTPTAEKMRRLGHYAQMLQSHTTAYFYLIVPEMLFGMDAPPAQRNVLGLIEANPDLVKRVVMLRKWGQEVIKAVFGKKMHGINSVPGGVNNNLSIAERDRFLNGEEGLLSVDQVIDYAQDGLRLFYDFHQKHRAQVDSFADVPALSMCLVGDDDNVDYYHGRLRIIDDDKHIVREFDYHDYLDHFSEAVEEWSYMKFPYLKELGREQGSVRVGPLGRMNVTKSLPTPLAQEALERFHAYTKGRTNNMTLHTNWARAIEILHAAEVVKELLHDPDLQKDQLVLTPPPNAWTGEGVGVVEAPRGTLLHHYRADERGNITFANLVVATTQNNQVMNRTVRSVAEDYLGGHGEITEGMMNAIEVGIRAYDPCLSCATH
In words: H2-dependent NAD+ reduction at […] nm, soluble extract. It counts as biochemical. Particulars: 1 mM NAD+, H2-saturated 50 mM Tris/HCl pH 8.0, anaerobic, 30 °C.

With `C(=NC1CCCCC1)=NC1CCCCC1` [DCCD, N,N′-dicyclohexylcarbodiimide], the “fold inhibition at 0.2 mM” value in assay [1] is ~ 2.3 fold.
Regarding `NC(=O)c1ccc[n+]([C@@H]2O[C@H](COP(=O)(O)OP(=O)(O)OC[C@H]3O[C@@H](n4cnc5c(N)ncnc54)[C@H](O)[C@@H]3O)[C@@H](O)[C@H]2O)c1` [NAD^+], in assay [2], the “H2-dependent NAD+ reduction at 365 nm, soluble extract” value was “hydrogen-oxidizing activity of SH was measured in anaerobic cuvettes with NAD^+”.

The record behind these values is publication PMC6859627, “Growth of the facultative chemolithoautotroph Ralstonia eutropha on organic waste materials: growth characteristics, redox regulation and hydrogenase activity” (Microbial Cell Factories, 2019).
